# Results taken from ChEMBL document CHEMBL1157539, “Thousands of chemical starting points for antimalarial lead identification” (Nature, 2010).
# System: Plasmodium falciparum
# Assay: GSK_TCMDC: Inhibition of Plasmodium falciparum 3D7 in whole erythrocytes, using parasite LDH activity as an index of growth.
# Type: functional, organism-based
SMILES,"XC50 (Plasmodium falciparum, 3D7)",XC50
Oc1ccc2c(CNCCc3ccccc3)c(O)ccc2c1CNCCc1ccccc1,104 nM,–
COc1ccc(CNCc2ccc(-c3ccc(-c4nc5cc(C(F)(F)F)ccc5[nH]4)s3)cc2)cc1,174 nM,–
COc1cccc(CNC(=O)c2cccc(-c3cccc(CN4CCC(N5CCCC5)CC4)c3)n2)c1,1030 nM,–
CC(C)Oc1cc2c(cc1NS(=O)(=O)c1ccc(-c3ccc(Cl)cc3)cc1)CCN(C)CC2,1040 nM,–
O=C(N[C@@H](Cc1ccccc1)C(=O)O)c1cc(-c2ccc(F)cc2)no1.O=C(N[C@@H](Cc1ccccc1)C(=O)O)c1conc1-c1ccc(F)cc1,802 nM,–
CCCc1cc(=O)oc2cc(OC)c(C(=O)CC(C)C)c(OC)c12,1010 nM,–
Cc1nc2cc(/C=C/C(=O)NC3CCC(CCN4CCc5ccc(C#N)cc5CC4)CC3)ccc2[nH]1 (configuration not stated),1140 nM,–
Cc1[nH]c(C)c(-c2ccc(Nc3ccc(C(F)(F)F)cn3)cc2)c(=O)c1Br,26 nM,–
Cn1cnc(CCNC(=O)c2ccc(-c3ccc(-c4nc5cc(F)ccc5[nH]4)cc3)cc2)c1,866 nM,–
Cc1cc(=NN=Cc2ccccc2Cl)c2cc(C(F)(F)F)ccc2[nH]1,858 nM,–
Cc1ccc2[nH]c(-c3ccc(C=CC(=O)NC4CCN(Cc5ccccc5)CC4)cc3)nc2c1,684 nM,–
COc1ccc(CCN(C)CCc2ccc(NC(=O)c3cccc4c(=O)c5ccccc5sc34)cc2)cc1,859 nM,–
O=C(/C=C/c1cc([N+](=O)[O-])ccc1Cl)N1CCC(CCN2CCC(c3c[nH]c4ccccc34)CC2)CC1,742 nM,–
N=C(N)Nc1nc(-c2cccc(NC(=O)NCC(c3ccccc3)c3ccccc3)c2)cs1,791 nM,–
O=C(Cn1c(CCc2cccc(F)c2F)cc(=O)c2cccnc21)N(CCN1CCCC1)Cc1ccc(-c2ccc(C(F)(F)F)cc2)cc1,890 nM,–
C=CCc1ccc(C[C@H](NC(=O)OC(C)(C)C)C(=O)OC)cc1,814 nM,–
CC(C)(C)c1cc(Cn2ccnc2)cc(C(C)(C)C)c1O,1040 nM,–
O=C(/C=C/c1ccc(Cl)c(Cl)c1)NCCCCCN1CCCC(c2c[nH]c3ccccc23)C1 (configuration not stated),812 nM,–
Cc1c(C(=O)N2CCc3cc4nccc(N5CCN6CCC[C@H]6C5)c4cc32)cnn1-c1ccc(C#N)cc1,994 nM,–
CSC1=NC(=Nc2ccccc2C)C2(CCC(C(C)(C)C)CC2)N1c1ccccc1Cl (configuration not stated),800 nM,–
CCC(=O)Nc1ccc(Nc2nc(C)cc(N3CCCC3)n2)cc1,1320 nM,–
Cc1cc(C)c2oc(-c3cccc(NC(=O)c4ccc([N+](=O)[O-])o4)c3C)nc2c1,1150 nM,–

SMILES,"XC50 (Plasmodium falciparum, 3D7)",XC50
CC1(C)N=C(N)N=C(N)N1c1ccc(Br)cc1,9.2 nM,–
Nc1ncc(-c2ccsc2)cc1-c1nc2ccccc2[nH]1,851 nM,–
Cc1ccc(Cn2cnc3cc(C(=O)Nc4ccc(-c5ccc(CN(C)C)cc5)cc4)ccc3c2=O)o1,1260 nM,–
CN1C(=O)[C@H](NC(=O)[C@@H](Cc2ccccc2)NC(=S)Nc2ccccc2)N=C(c2ccccc2)c2ccccc21,855 nM,–
O=C(Nc1cccc(-c2ccc(-c3nc4ccccc4[nH]3)cc2)c1)c1ccncc1,529 nM,–
CC(C)OC(=O)c1cccnc1SCC(=O)Nc1ccc(C(F)(F)F)cc1Cl,400 nM,–
N#Cc1ccc(C(=O)Nc2cccc(-c3ccc(CN4CCCC4)cc3)c2)cc1,723 nM,–
CCCCCc1cnc2nc(N)nc(N)c2c1C,211 nM,–
CC1(C)N=C(N)N=C(N)N1c1ccc(I)cc1,44.4 nM,–
N#CCCN1CCN(Cc2cccc(-c3ccc(-c4nc5ccccc5[nH]4)s3)c2)CC1,759 nM,–
Cc1ccc2c(c1)NCC21CCN(C[C@@H](O)C2CCN(c3cc(C#N)ccn3)CC2)CC1C (some centres not stated),606 nM,–
CCC(CC)n1c(COC)cc2c3c(N)nc(N)nc3ccc21,5.57 nM,–
CCCCN(CCCC)CC(O)c1cc(-c2ccc(Cl)cc2)nc2c(Cl)cc(Cl)cc12 (configuration not stated),26.3 nM,–
O=C(/C=C/c1ccc(Cl)c(Cl)c1)NCCCCCN1CCC(c2cn[nH]c2-c2ccccc2)CC1,1220 nM,–
Clc1ccc2c(NCCNc3ccnc4cc(Cl)ccc34)ccnc2c1,396 nM,–
CCN(CC)C(=S)N/N=C1/C(=O)Nc2c(C)cccc21,863 nM,–
Cc1ccc(Nc2nc3cc(N(C)c4ccnc(Nc5cccc(CS(C)(=O)=O)c5)n4)ccc3o2)cc1,973 nM,–
CCc1cn2c3c(cc(C(=O)N[C@@H](Cc4cccc(F)c4)[C@H](O)CNC4CC4)cc13)N(C)S(=O)(=O)CC2,143 nM,–
Cc1nccn1Cc1cc(C(C)(C)C)c(O)c(C(C)(C)C)c1,788 nM,–
COc1cc2nc(N3CCC(CNC(=O)c4ccc(-c5ccc(-c6noc(C)n6)cc5C)cc4)CC3)nc(N)c2cc1OC,215 nM,–
Clc1cc(Nc2ccnc3ccc(Br)cc23)ccc1Oc1ccc(Cl)c2ccccc12,634 nM,–
CCc1cc(NC2CCN(C)CC2)nc(Nc2ccc(C)cc2)n1,694 nM,–

SMILES,"XC50 (Plasmodium falciparum, 3D7)",XC50
COc1ccc(OCCCON)cc1,167 nM,–
COc1cccc(-c2ccc3c(-c4cccc(NC(C)=O)c4)cnc(N)c3c2)c1,106 nM,–
Cc1cccc2nc(-c3ccc(-c4ccc(C(=O)NCCN5CCCC5)cc4)cc3)[nH]c12,519 nM,–
OC(c1ccc2ccccc2c1)C1CN(CCc2ccccc2)CCC1(O)c1ccccc1 (configuration not stated),554 nM,–
CCCCCCCN1CCC(NC(=O)Nc2ccnc3ccc(OC)cc23)C(C(=O)OCC)C1 (configuration not stated),426 nM,–
CCc1ccc(OCc2ccccc2C(=O)Nc2ccc3nc(C)cc(N)c3c2)cc1,203 nM,–
COc1cccc(-c2csc(C(=O)NC3CCCCN(Cc4ccc(C(C)(C)C)cc4)C3)c2)c1 (configuration not stated),887 nM,–
CC(C)c1ccc(NC(=O)Nc2ccc(CCNCCCc3ccccc3)cc2)cc1,761 nM,–
COc1cc(CCOc2c(C)nc(N)nc2N)cc(OC)c1OC,23.8 nM,–
N#Cc1cccc(C(=O)Nc2cccc(-c3ccc(CN4CCC(O)CC4)cc3)c2)c1,1300 nM,–
O=C(CNC1CCCCC1)c1ccc(O)c(O)c1,660 nM,–
CCN1CCC(NCc2ccc(-c3ccc(Cl)s3)cc2)CC1,939 nM,–
CCOC(=O)CCCCOc1c(OC)cc(Cc2cnc(N)nc2N)cc1OC,29.9 nM,–
Cc1cccn2c(=O)c3cc(C(=O)NCc4cccnc4)c(=N)n(CCc4ccccc4)c3nc12,714 nM,–
C[C@H](CNc1ccnc(Nc2ccc3[nH]c(=O)[nH]c3c2)n1)c1ccccc1,–,700 nM
Fc1ccc2c(NN=CC=Cc3ccccc3)ccnc2c1,779 nM,–
COc1ccc(-n2nc(C)cc2C(=O)NCc2ccc(-c3c(C)noc3C)cc2)cc1,980 nM,–
O=C(/C=C/c1ccc(Cl)c(Cl)c1)NCCCCCN1CCC(NC(=O)Nc2ccc(F)c(F)c2)CC1,842 nM,–
CCN(CC)CCN(Cc1ccc(-c2ccc(C(F)(F)F)cc2)nc1)C(=O)Cn1c(SCc2ccc(F)cc2)nc(=O)c2sccc21,840 nM,–
CCCCC#Cc1cnc2nc(N)[nH]c(=O)c2n1,646 nM,–
CN1CCN(CCCN(Cc2cccc(-c3ccc(CNC4CCCC4)cc3)c2)C(=O)/C=C/c2ccccc2)CC1,746 nM,–
COCCCNc1sc(S(=O)(=O)c2ccccc2)nc1S(=O)(=O)c1ccc(C)cc1,802 nM,–

SMILES,"XC50 (Plasmodium falciparum, 3D7)",XC50
O=C(N[C@H]1CCN(Cc2ccc(OCCCN3CCCCC3)cc2)C1)c1cc(Cl)cc(Cl)c1,621 nM,–
CC(C)C[C@H](NC(=O)c1ccc(OCCN2CCOCC2)cc1)C(=O)N[C@H](/C=N/NC(=O)OC(C)(C)C)CCc1ccccc1,162 nM,–
N=C(NCc1ccc(O)cc1)Nc1nc(-c2ccc(OCCCn3ccnc3)cc2)cs1,749 nM,–
COc1ccc(CNCCc2cccs2)cc1-c1ccc(S(=O)(=O)NCCN2CCCC2)s1,877 nM,–
c1ccc2c(NCCCCCCCCNc3ccnc4ccccc34)ccnc2c1,155 nM,–
CCn1cc2c3c(cc(C(=O)N[C@@H](Cc4ccccc4)[C@H](O)CNC4CCOCC4)cc31)N(C)S(=O)(=O)CC2,208 nM,–
COc1cc(OC)c(NC(=O)COc2ccc(C)cc2)cc1Cl,688 nM,–
O=C(/C=C/c1ccc([N+](=O)[O-])cc1)N1CCC(NS(=O)(=O)c2ccc(F)cc2)CC1,824 nM,–
CCN(CC)CCCNc1nccc(N(C)c2ccc(NC(=O)Nc3cc(C(F)(F)F)ccc3F)cc2)n1,1050 nM,–
COc1ccc2nccc(NCC3(O)CCN(CC(O)c4ccc5c(c4)NC(=O)CS5)CC3)c2n1 (configuration not stated),834 nM,–
NC1=NC(c2ccccc2)N(c2ccc(Cl)c(Cl)c2)C(N)=N1 (configuration not stated),14.6 nM,–
Oc1ccc2nc(Nc3ccccc3)nc(NCCc3ccccc3)c2c1,152 nM,–
Cc1cccc(C(=O)Nc2ccnc(N(C)C3CCN(CC(C)C)CC3)c2)c1,869 nM,–
Cc1nnc2c(NC(=O)NC3CCCC3)cc3cc(-c4ccc(CN5CCN(C)CC5)cc4)ccc3n12,1020 nM,–
CN(C(=O)/C=C/c1cc(C(F)(F)F)ccc1F)C1CCN(CCCCCNC(=O)/C=C/c2ccc(Cl)c(Cl)c2)C1 (configuration not stated),1090 nM,–
C/C=C1/CN2CC[C@H]1C[C@H]2[C@H](O)c1ccnc2ccc(OC)cc12,199 nM,–
CS(=O)(=O)CCNCc1ccc(-c2ccc3ncnc(Nc4ccc(OCc5ccccc5)c(Cl)c4)c3c2)o1 [GW574783B],557 nM,–
Fc1cccc(Nc2nc(NCc3ccc(OCc4ccccc4)cc3)nc(Nc3cccc(F)c3)n2)c1,1180 nM,–
COC(=O)C(NC(=O)c1ccc(-c2ccc(-c3nc4ccccc4[nH]3)s2)cc1)c1ccc(O)cc1 (configuration not stated),738 nM,–
FC(F)(F)c1ccc2[nH]c(-c3ccc(-c4ccc(CNCc5cnn(-c6ccccc6)n5)cc4)s3)nc2c1,456 nM,–
COc1ccc(Cl)cc1NC(=O)C(C)N1CCN(S(=O)(=O)c2ccccc2F)CC1 (configuration not stated),672 nM,–
